The values below come from patent publication US20160221965A1, “DISUBSTITUTED TRIFLUOROMETHYL PYRIMIDINONES AND THEIR USE” (BAYER PHARMA AKTIENGESELLSCHAFT, priority 2013, published 2016).

The target of test [1] is T1, human CCR2 (Homo sapiens, UniProt P41597).
T1 construct: host or cells: Chem-1 cell line
T1 sequence (P41597 1-360 isoform P41597-2): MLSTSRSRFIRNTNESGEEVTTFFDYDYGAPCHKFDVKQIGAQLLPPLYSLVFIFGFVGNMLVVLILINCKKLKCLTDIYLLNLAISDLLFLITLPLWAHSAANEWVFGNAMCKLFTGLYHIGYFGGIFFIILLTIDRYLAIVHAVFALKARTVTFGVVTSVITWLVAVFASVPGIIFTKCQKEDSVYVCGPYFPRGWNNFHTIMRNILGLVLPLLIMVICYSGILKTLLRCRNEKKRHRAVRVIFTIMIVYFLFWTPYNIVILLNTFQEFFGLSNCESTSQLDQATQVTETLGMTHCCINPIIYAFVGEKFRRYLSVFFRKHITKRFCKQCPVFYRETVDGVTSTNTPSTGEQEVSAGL
Briefly: Functional Ca2+ release test (B-1). It counts as cell-based. Conditions: Chem-1 cell line transfected with human CCR2, inhibition of MCP-1 effect, MCP-1 at EC50 (about 5 nM), Fluo-4. As for the experimental part:
The antagonistic action of test substances on CCR2 was determined in a functional Ca^2+ release test. Binding of CCL2/MCP-1 to CCR2 leads to a change in the conformation of the receptor resulting in Gi/Gq protein activation and intracellular signal cascade. This involves, inter alia, an intracellular Ca^2+ release. The test cell used was a Chem-1 cell line transfected with human CCR2 (ChemiSCREEN™ CCR2B Calcium-Optimized FLIPR Cell Line, Merck Millipore).
(§1) The test substances were dissolved in dimethyl sulphoxide (DMSO) at a concentration of 10 mM and serially diluted with DMSO in steps of 1:3.16 for a 10-point dose/activity analysis. According to the desired test concentrations, the substances were pre-diluted in Tyrode with 2 mM CaCl2 and 0.05% BSA.
The cells, cultivated in DMEM high glucose [supplemented with 10% FCS, 1 mM pyruvate, 15 mM HEPES, 500 μg/ml geniticin and non-essential amino acids (NEAA)], were sown at 5000 cells/25 μl in 384 well, μCLEAR/black cell culture plates from Greiner (#781092) and incubated at 37° C. for 24 h. The sowing medium consisted of DMEM high glucose [supplemented with 5% FCS, 1 mM pyruvate, 15 mM HEPES, 50 U/ml penicillin, 50 μg/ml streptomycin and non-essential amino acids (NEAA)]. The medium was then removed and the cells were charged for 60 min at 37° C. with Fluo-4 dye [25 μl Tyrode with 3 μM Fluo-4 AM (1 mM DMSO stock solution), 0.4 mg/ml Brilliant Black, 2.5 mM probenicid, 0.03% Pluronic F-127]. The cells were pre-incubated for 10 min with 10 μl of the test substances diluted in buffer, and 20 μl of agonist solution (MCP-1 in Tyrode with 0.05% BSA) were then added. MCP-1 was employed at the concentration which corresponds to the EC50 which had been determined in a preliminary test (usually about 5 nM). Ca^2+ release was monitored over a period of 120 s in 1 s increments in a proprietary fluorescence imaging reader. The molar concentration of the test substance which caused 50% inhibition of the MCP-1 effect (IC50) was determined using a 4-parameter logistic function (Hill function).

Test [2] deals with T2, murine CCR2 (Mus musculus, UniProt P51683).
T2 construct: host or cells: U2OS β-arrestin cell line
T2 sequence (P51683 whole entry): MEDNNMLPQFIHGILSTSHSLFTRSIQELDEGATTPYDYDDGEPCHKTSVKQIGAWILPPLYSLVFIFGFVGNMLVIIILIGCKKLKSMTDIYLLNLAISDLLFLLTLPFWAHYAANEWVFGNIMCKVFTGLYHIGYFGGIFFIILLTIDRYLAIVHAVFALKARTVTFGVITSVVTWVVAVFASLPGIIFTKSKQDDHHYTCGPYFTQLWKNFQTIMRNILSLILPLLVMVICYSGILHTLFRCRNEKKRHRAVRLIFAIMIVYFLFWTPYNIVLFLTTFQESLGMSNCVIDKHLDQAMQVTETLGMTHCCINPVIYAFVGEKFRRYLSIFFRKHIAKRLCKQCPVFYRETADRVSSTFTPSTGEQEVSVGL
The test is described as follows: Functional β-arrestin recruiting test with human MCP-1 (B-2a). It counts as cell-based. The settings on record: U2OS β-arrestin cell line transfected with murine CCR2; agonist human MCP-1 at EC50 (about 3 nM). The procedure: The antagonistic action of test substances on CCR2 was determined in a β-arrestin test. The PathHunter β-arrestin GPCR test system (DiscoveRx Corporation, Ltd.) is a cell-based functional method for detecting binding of β-arrestin to an activated receptor. The molecular basis is a β-galactosidase complementation measured by the enzymatic conversion of a chemiluminescent substrate. The test cell used was a U2OS β-arrestin cell line transfected with murine CCR2 (93-0543C3, DiscoveRx Corporation, Ltd.).
as §1
The cells, cultivated in MEM Eagle (supplemented with 10% FCS, 50 U/ml of penicillin, 50 μg/ml of streptomycin, 250 μg/ml of hygromycin and 500 μg/ml of geniticin), were sown at 2000 cells/25 μl in 384 well, μCLEAR/black cell culture plates from Greiner (#781092) and incubated at 37° C. for 24 h. The sowing medium consisted of Opti-MEM (supplemented with 1% FCS, 50 U/ml of penicillin and 50 μg/ml of streptomycin). The cells were pre-incubated for 10 min with 10 μl of the test substances diluted in buffer, and 10 μl of agonist solution [human MCP-1 (PeproTech, #300-04) in Tyrode with 0.05% BSA] were then added. The human MCP-1 was employed at the concentration which corresponds to the EC50 which had been determined in a preliminary test (usually about 3 nM). After 90 min of incubation at 37° C., the solution was removed, and recruitment of β-arrestin to CCR2 was detected with the aid of the PathHunter detection reagent (93-001, DiscoveRx Corporation, Ltd.) according to the instructions of the manufacturer. Luminescence was measured after an incubation time of 60 min using a proprietary luminescence imaging measuring instrument. The molar concentration of the test substance which caused 50% inhibition of the MCP-1 effect (IC50) was determined using a 4-parameter logistic function (Hill function).
(In general: Arrestin recruitment assays detect the binding of arrestin to an activated receptor.)

Usually IC50 stands for the point on the concentration scale where inhibition reaches its midpoint. Turning to `Nc1nc(C(F)(F)F)c(Oc2ccc(F)c(Cl)c2)c(=O)[nH]1` [Example 4, 2-amino-5-(3-chloro-4-fluorophenoxy)-6-(trifluoromethyl)pyrimidin-4(3H)-one], the values for the IC50 in test [1] and in test [2] were 6.5 nM and 220 nM, respectively.
On the same counts, the results for `Nc1nc(C(F)(F)F)c(Oc2ccc(Cl)c(F)c2)c(=O)[nH]1` [Example 5, 2-amino-5-(4-chloro-3-fluorophenoxy)-6-(trifluoromethyl)pyrimidin-4(3H)-one] are 8.7 nM and 210 nM.
With `Nc1nc(C(F)(F)F)c(Oc2ccc(F)c(C(F)(F)F)c2)c(=O)[nH]1` [Example 6, 2-amino-5-[4-fluoro-3-(trifluoromethyl)phenoxy]-6-(trifluoromethyl)pyrimidin-4(3H)-one], the IC50 is 5.4 nM in test [1] and 150 nM in test [2].
On the same counts, the results for `Nc1nc(C(F)(F)F)c(Cc2ccc(F)c(Cl)c2)c(=O)[nH]1` [Example 7, 2-amino-5-(3-chloro-4-fluorobenzyl)-6-(trifluoromethyl)pyrimidin-4(3H)-one] are 11 nM and 300 nM.
The matching figures for `Nc1nc(C(F)(F)F)c(Cc2ccc(Cl)c(C(F)(F)F)c2)c(=O)[nH]1` [Example 8, 2-amino-5-[4-chloro-3-(trifluoromethyl)benzyl]-6-(trifluoromethyl)pyrimidin-4(3H)-one]: 33 nM and 160 nM.
On the same counts, the results for `Nc1nc(C(F)(F)F)c(Oc2cccc(Cl)c2)c(=O)[nH]1` [Example 9, 2-amino-5-(3-chlorophenoxy)-6-(trifluoromethyl)pyrimidin-4(3H)-one] are 38 nM and 450 nM.
For `Nc1nc(C(F)(F)F)c(Oc2ccc(F)c(F)c2)c(=O)[nH]1` [Example 10, 2-amino-5-(3,4-difluorophenoxy)-6-(trifluoromethyl)pyrimidin-4(3H)-one], the results for the IC50 in test [1] and in test [2] were 43 nM and 1300 nM, respectively.
The matching figures for `Cc1ccc(Cc2c(C(F)(F)F)nc(N)[nH]c2=O)cc1Cl` [Example 11, 2-amino-5-(3-chloro-4-methylbenzyl)-6-(trifluoromethyl)pyrimidin-4(3H)-one]: 42 nM and 560 nM.
The matching figures for `Nc1nc(C(F)(F)F)c(Oc2cncc(Cl)c2)c(=O)[nH]1` [Example 12, 2-amino-5-[(5-chloropyridin-3-yl)oxy]-6-(trifluoromethyl)pyrimidin-4(3H)-one]: 54 nM and 1000 nM.
On the same counts, the results for `Nc1nc(C(F)(F)F)c(Cc2ccc(Cl)c(F)c2)c(=O)[nH]1` [Example 13, 2-amino-5-(4-chloro-3-fluorobenzyl)-6-(trifluoromethyl)pyrimidin-4(3H)-one] are 69 nM and 330 nM.
In the case of `Nc1nc(C(F)(F)F)c(Cc2ccc(C(F)(F)F)c(Cl)c2)c(=O)[nH]1` [Example 14, 2-amino-5-[3-chloro-4-(trifluoromethyl)benzyl]-6-(trifluoromethyl)pyrimidin-4(3H)-one], the values for the IC50 in test [1] and in test [2] were 71 nM and 810 nM, respectively.
Consider `Nc1nc(C(F)(F)F)c(Sc2ccc(Cl)c(Cl)c2)c(=O)[nH]1` [Example 15, 2-Amino-5-[(3,4-dichlorophenyl)sulphanyl]-6-(trifluoromethyl)pyrimidin-4(3H)-one], for which the IC50 in test [1] came out at 2.3 nM; in test [2], 130 nM.
The matching figures for `Nc1nc(C(F)(F)F)c(Sc2ccc(Cl)cc2)c(=O)[nH]1` [Example 16, 2-amino-5-[(4-chlorophenyl)sulphanyl]-6-(trifluoromethyl)pyrimidin-4(3H)-one]: 31 nM and 640 nM.
On the same counts, the results for `Nc1nc(C(F)(F)F)c(Sc2ccc(Cl)c(C(F)(F)F)c2)c(=O)[nH]1` [Example 17, 2-amino-5-{[4-chloro-3-(trifluoromethyl)phenyl]sulphanyl}-6-(trifluoromethyl)pyrimidin-4(3H)-one] are 4.1 nM and 160 nM.
On the same counts, the results for `Cc1nc(C(F)(F)F)c(Cc2ccc(Cl)c(Cl)c2)c(=O)[nH]1` [Example 18, 5-(3,4-Dichlorobenzyl)-2-methyl-6-(trifluoromethyl)pyrimidin-4(3H)-one] are 33 nM and 370 nM.
As for `CCc1nc(C(F)(F)F)c(Cc2ccc(C(F)(F)F)c(Cl)c2)c(=O)[nH]1` [Example 19, 5-[3-Chloro-4-(trifluoromethyl)benzyl]-2-ethyl-6-(trifluoromethyl)pyrimidin-4(3H)-one], the results for the IC50 in test [1] and in test [2] were 63 nM and 980 nM, respectively.
The matching figures for `CCc1nc(C(F)(F)F)c(Cc2cccc(C(F)(F)F)c2)c(=O)[nH]1` [Example 20, 2-ethyl-6-(trifluoromethyl)-5-[3-(trifluoromethyl)benzyl]pyrimidin-4(3H)-one]: 300 nM and 1200 nM.
On the same counts, the results for `O=c1[nH]c(C2CC2)nc(C(F)(F)F)c1Cc1cccc(Cl)c1` [Example 21, 5-(3-chlorobenzyl)-2-cyclopropyl-6-(trifluoromethyl)pyrimidin-4(3H)-one] are 230 nM and 590 nM.
On the same counts, the results for `CCCCc1nc(C(F)(F)F)c(Cc2ccc(Cl)c(Cl)c2)c(=O)[nH]1` [Example 22, 2-butyl-5-(3,4-dichlorobenzyl)-6-(trifluoromethyl)pyrimidin-4(3H)-one] are 110 nM and 740 nM.
For `O=c1[nH]c(C2CC2)nc(C(F)(F)F)c1Cc1ccc(Cl)c(F)c1` [Example 23, 5-(4-chloro-3-fluorobenzyl)-2-cyclopropyl-6-(trifluoromethyl)pyrimidin-4(3H)-one], the IC50 in test [1] came out at 280 nM; in test [2] it was 1200 nM.
`O=c1[nH]c(C2CC2)nc(C(F)(F)F)c1Cc1ccc(C(F)(F)F)c(Cl)c1` [Example 24, 5-[3-chloro-4-(trifluoromethyl)benzyl]-2-cyclopropyl-6-(trifluoromethyl)pyrimidin-4(3H)-one]: the IC50 came to 270 nM in test [1] and 1900 nM in test [2].
The matching figures for `O=c1[nH]c(C2CC2)nc(C(F)(F)F)c1Oc1ccc(Cl)c(Cl)c1` [Example 25, 2-cyclopropyl-5-(3,4-dichlorophenoxy)-6-(trifluoromethyl)pyrimidin-4(3H)-one]: 15 nM and 170 nM.
The matching figures for `CCc1nc(C(F)(F)F)c(Cc2ccc(Cl)c(C(F)(F)F)c2)c(=O)[nH]1` [Example 26, 5-[4-chloro-3-(trifluoromethyl)benzyl]-2-ethyl-6-(trifluoromethyl)pyrimidin-4(3H)-one]: 31 nM and 240 nM.
